Reference: patent publication US11154480B2, “Shaping keratin fibres using a sugar” (The Procter & Gamble Company, priority 2013, dated 2021)

Experiments:
[1] = Benedict's Test for reducing sugars; type: physicochemical
Text: As used herein, “reducing sugar” means any sugar that either has an aldehyde group or is capable of forming an aldehyde group in solution through isomerism, and that gives a positive result in the Benedict's test. An aldehyde group is —C(═O)H. The aldehyde group is important in view of reacting with and crosslinking the hair. The Benedict's test involves employment of the Benedict's solution. The Benedict's solution is available from Sigma Aldrich as ‘Benedict's Reagent’, which comprises sodium carbonate, copper sulphate pentahydrate and 2,5-difluorotoluene. In the Benedict's test, 1 mL of Benedict's solution is added to a 20 mL of 5% aqueous solution comprising a dissolved test compound. Benedict's solution contains blue copper(II) ions (Cu^2+). The solution is heated to 80° C. for 15 min and the resulting colour change is noted. The cupric ion of the Benedict's solution is reduced to cuprous ion by the aldehyde of the sugar. A positive Benedict's test result is confirmed with a change in colour as cupric ions (Cu^2+) are converted to cuprous ions i.e. reduced to copper(I) ions (Cu^+). These are precipitated as red copper(I) oxide which is insoluble in water. The test is also designed for longer heating time and higher temperature to note any colour change. The solution may range in colour (with increasing amounts of reducing sugar) from green, through yellow and orange, to red. […] The wavelength of light reflected by the solution will change with the colour. In at least one embodiment, a positive Benedict's test result is when the solution emits light not peaking with a wavelength in the range of 450 nm to 495 nm. In at least one embodiment, a positive Benedict's test result is when the solution emits light peaking with a wavelength in the range of 620 nm to 750 nm. This can be measured using a spectrophotometer.
In the art, the Benedict's reagent is used as a test for the presence of reducing sugars. This includes all monosaccharides and many disaccharides, including lactose and maltose. Even more generally, Benedict's test will detect the presence of aldehydes, and alpha-hydroxy-ketones, including those that occur in certain ketoses. Thus, although fructose, a ketose, is not strictly a reducing sugar, it is an alpha-hydroxy-ketone, it gives a positive test because it is converted to the aldoses glucose and mannose by the base in the reagent. The copper sulphate in Benedict's solution reacts with reducing sugars. One litre of Benedict's reagent can be prepared from 100 g of anhydrous sodium carbonate, 173 g of sodium citrate and 17.3 g of copper(II) sulfate pentahydrate. Benedict's Reagent provides a quantitative test for reducing sugars along with qualitative test. The colour of the obtained precipitate gives an idea about the quantity of sugar present in the solution. A greenish precipitate indicates about 0.5% concentration; yellow precipitate indicates 1% concentration; orange indicates 1.5% and red indicates 2% or higher concentration. A positive result in the Benedict's test can be recognised for a compound by a 5% (weight/weight) solution of compound in water as a red colouring. The aldehyde group of the sugar allows the sugar to act as a reducing agent, for example in the Benedict's test.

[2] = as known in the art; converted to aldoses by the base in the reagent; cited from earlier work
[3] = 80° C., 15 min, 5% aqueous solution of test compound

| SMILES | Assessment of sugars using the Benedict's Test [1, 3] | Assessment of sugars using the Benedict's Test ([1]; 100° C., 40 min) | Benedict's test result [2] |
| --- | --- | --- | --- |
| O=C[C@@H](O)[C@H](O)[C@H](O)CO [Arabinose] | Positive | Positive |  |
| CO[C@H]1OC(CO)[C@H](O)[C@@H](O)[C@@H]1O (stereo partly shown) [Methyl glucoside] | Negative | Positive |  |
| O=C(CO)[C@@H](O)[C@H](O)[C@H](O)CO [Fructose] | Positive | Positive | positive |
| O=C[C@H](O)[C@H](O)[C@H](O)CO [Ribose] | Positive | Positive |  |
| OC[C@H]1O[C@@](CO)(O[C@H]2O[C@H](CO)[C@@H](O)[C@H](O)[C@H]2O)[C@@H](O)[C@@H]1O [Sucrose] | Negative | Positive |  |
| O=C[C@H](O)[C@@H](O)[C@H](O)CO [Xylose] | Positive | Positive |  |
